Values quoted from earlier work as cited in patent publication US20220308074A1, “QUANTIFICATION METHOD OF VITAMIN D DERIVATIVE, ENZYME FOR QUANTIFICATION, COMPOSITION FOR QUANTIFICATION, KIT FOR QUANTIFICATION, ELECTRODE, SENSOR CHIP, AND SENSOR” (KIKKOMAN CORPORATION, priority 2019, published 2022).
Like-named read-outs stand apart in the source and are kept apart here.

Substance | half-life in the blood (blood) | half-life in the blood (in vivo)
1,25-dihydroxyvitamin D | about 15 hours | –
25-hydroxyvitamin D | – | 2-3 weeks
